The text below walks through data of patent publication US10188629B2, “Prodrug of green tea epigallocatechin-3-gallate (pro-EGCG) for use in the treatment of endometriosis” (The Hong Kong Polytechnic University, priority 2012, dated 2019).

Assay type in all cases: in vivo, mice
Assay [1] concerns endometriotic lesions (experimental endometriosis). Description: Growth of luminescent endometriotic lesions monitored weekly by IVIS bioluminescence imaging. An excerpt:
Based on our previous study, an immune-compromised mouse model of experimental endometriosis was created by subcutaneous transplantation of human or mouse tissues to assess the anti-angiogenic effects and mechanisms of green tea catechin (Xu H, et al. Hum Reprod 2009; 24:608-18; Xu H, et al. Fertil Steril 2011; 96:1021-8).
(§1) In this study, endometrial tissues from eight-week-old female CMV-Luc mice (n=15) were acquired for transplantation into nonluminescent NOD-SCID mice (n=32). The mouse endometrium was obtained during the proliferating estrous stage, and biopsies 2 mm in diameter were obtained with a sterile dermal biopsy punch (Miltex, NY). The biopsies were immediately washed in prewarmed, phenol-red-free DMEM/F-12 medium (Sigma) to remove residual blood and mucus, and the samples were maintained in serum-free DMEM/F-12 medium before transplantation (Bruner-Tran K L, et al. J Clin Endocrinol Metab 2009; 94:2489-94). Cultured endometrial biopsies were randomly allocated for transplantation.
(§2) Five mouse endometrial biopsies per treatment group were implanted into a single subcutaneous pocket created is the abdominal wall of the mice along the ventral midline immediately below the umbilicus. All of the surgical procedures were performed under general anesthesia with isoflurane (Baxter, IL), and the mice were monitored until they fully recovered.
Development and angiogenesis of the experimental endometriosis were monitored using various in vivo imaging systems. During the intervention, growth of the endometriotic lesions (n=8 per group) was monitored each week by measuring the bioluminescence of the subcutaneous luciferase-positive implants using a non-invasive IVIS 200 live animal imaging system (Xenogen) as previously described (Song C, et al. Hum Gene Ther, 2011; 22:439-49). A total of 150 mg/kg of luciferin was injected intraperitoneally […] 10 mins prior to imaging. An image from each animal was captured at bin size 4 in triplicate, and the bioluminescence signal intensities were averaged for comparison.

For assay [2] the test system is unchanged. As to the kind of experiment: Lesion size, weight and histology at end of intervention. Particulars: after 4 weeks i.p. once per day.
From the text: as §1, §2
At the end of intervention, size of the endometriotic lesions was determined as the longest length and perpendicular width according to a venire caliper and was calculated as 0.52×width^2×length in mm^3. The endometrial implants, together with subcutaneous and muscle layers, were removed from the abdomen wall for detailed histological examination and specific staining analysis.
(§3) Paraffin sections (n=4 per group) were prepared for standard hematoxylin and eosin (H&E) staining, angiogenesis immunostaining and TUNEL staining as previously described (Xu H, et al. Hum Reprod 2009; 24:608-18.). Immunohistochemistry staining of in situ angiogenesis was performed by the immunoperoxidase method using a MACH 3 HRP Polymer Kit (Biocare Medical, Concord), and counterstained using methyl green or blue solution.

For assay [3], the system named is microvessels in the endometriotic lesions. As to the kind of experiment: Angiogenesis of endometriotic lesions by Cellvizio, microCT and CD31/αSMA immunostaining. Particulars: after 4 weeks. The protocol:
(§4) At the end of intervention, functional angiogenesis of the endometriotic lesions (n=8 per group) was monitored by measuring the flow of fluorescence dye in the new microvessels developed in the implants using a Cellvizio® LAB LSU-488 system with a ProFlex Microprobe S1500 (Mauna Kea Technologies, Paris) as previously described (Xu H, et al. Fertil Steril 2011; 96:1021-8.). A total of 10 mg/ml of FITC-Dextran was injected intravenously into each mouse prior to imaging. Total vessel length (μm) and area (μm^2) and functional capillary length (μm^−1) and area density were measured using Cellvizio® LAB Vessel Detection software, and averaged from 4 perpendicular regions of the lesions in replicates. At the same time, apoptotic cells in the lesions were captured by Cellvizio-LAB 488 with a ProFlex MiniO/100 microprobe using Cellvizio® LAB I/C Viewer software (Mauna Kea Technologies). A total of 10 μl of 10 μM YO-PRO®-1 iodide in DSMO was injected into the lesion area.
After live animal imaging, structural angiogenesis in the endometriotic lesions (n=4 per group) was further examined by detecting the Microfil in the new microvessels developed in the implants using a VivaCT 40 μCT system (Scanco Medical, Switzerland) as previously described (Sun M H, et al. J Orthop Res. 2012; 30:137-43.). The mice were sacrificed by cervical dislocation and where immediately perfused with 4% paraformaldehyde and Microfil MV-120 Blue. Three-dimensional microvessel architecture was constructed, and absolute and relative Microfil-filled microvessel volumes were determined using the built-in software.
as §3
Antibodies against mouse CD31 and alpha-smooth muscle actin (αSMA) (Abcam Inc., MA) were used to double fluorescence stain the microvessels developed in the endometriotic lesions, and CD34 (Abeam Inc.) was used to stain the microvessels in the ovaries and uterus. The samples without primary antibodies served as negative controls. The total number of positively stained new and old microvessels in the lesions was counted, respectively. The mean microvessel numbers and sizes were calculated from 5 separated sections from each animal within the treatment group and are presented as numbers per lesion and μm^2 per lesion, respectively.

Assay [4] has as its system apoptotic cells in the endometriotic lesions. As to the kind of experiment: Apoptosis in endometriotic lesions by Cellvizio YO-PRO-1 imaging and TUNEL staining. Particulars: after 4 weeks. The protocol:
as §4
The total number of apoptotic cells was counted and averaged from the 4 perpendicular regions of the lesions in replicates as described above. Both IVIS and Cellvizio imaging procedures were performed under general anesthesia with isoflurane (Baxter, Ill.), and the mice were observed until fully recovered.
TUNEL labeling for in situ apoptotic cells was performed using an ApopTag Peroxidase In Situ Apoptosis Detection Kit (Temecula, Calif.) according to the manufacturer's instructions. The total numbers of TUNEL-positive stained cells were counted. The mean numbers of apoptotic cells were calculated from 5 separated sections from each animal within the treatment group and are presented as numbers per lesion as above. […] Each section was evaluated by both examiners, who were blinded to the experimental groups and results.

Assay [5] can be described thus: Oxygen radical absorbance capacity (ORAC) in plasma and lesions. An excerpt:
(§5) Pharmacokinetics of EGCG and pro-EGCG in the animals were studied by measuring the corresponding EGCG and pro-EGCG concentrations (EGCG in the EGCG group, pro-EGCG in the pro-EGCG group) in plasma during the intervention and also in lesions at the end of intervention. EGCG and pro-EGCG were quantified by analytical methods as previously described (Lam W H, et al. Bioorg Med Chem. 2004; 510:69-93; Chu K O, et al. J Chromat B 2004; 810:187-95; Chu K O, et al. Anal Chim Acta 2004; 510:69-76). Anti-oxidative and anti-angiogenesis capacities of the samples were also studied by measuring oxygen radical absorbance capacity (ORAC) using a modified phycoerythrin fluorescence decay assay as previously described (Wang C C, et al. Clin Chem 2004; 50:952-4), and vascular endothelial growth factor (VEGF) concentrations were measured using a commercial ELISA kit (Uscn Life Science Inc., TX) according to the manufacturer's manual. Blood samples (n=8 per group) were collected from the tail vein once per week, and plasma was prepared by immediate centrifugation. Implants without subcutaneous and muscle layers (n=4 per group) were removed from the abdominal wall, and the endometriotic lesions were frozen. All of the samples were kept in −80° C. prior to analysis.

The subject of assay [6] is vascular endothelial growth factor (VEGF). Description: VEGF concentrations in plasma and lesions by ELISA.
From the text: as §5
Background: ELISA stands for enzyme-linked immunosorbent assay.

[7] abbreviates: EGCG, pro-EGCG 50 mg/kg, vitamin E 20 mg/kg.

In the case of vitamin E, in assay [1] (i.p. once per day, 4 weeks, EGCG, pro-EGCG 50 mg/kg, vitamin E 20 mg/kg), the “lesion bioluminescence intensity compared with saline group” value is “significantly lower than that of the saline group at the 3rd week”. The “lesion growth (bioluminescence) at the 4th week compared with saline group” value in assay [1] (vitamin E 20 mg/kg i.p. once per day, 4th week) is on record as “returned to normal growth, as in the saline group”. In addition, in assay [2] (setting [7]), the “lesion size compared to control group” value is given as “did not significantly decrease” and the “lesion weight compared to control group” value is reported as “did not significantly decrease”. In addition, the “development and histology of the endometriotic lesions” value in assay [2] (microscopic examination) is given as “a large cyst-like endometrial gland structure was formed”. Moreover, in assay [3] (Cellvizio, FITC-Dextran), the “functional capillary length, density and area in the lesions compared to saline group” value is on record as “but not vitamin E, significantly inhibited”; the “total vessel length in the lesions compared to saline group” value is listed as “but not vitamin E, significantly inhibited”. For the same substance, in assay [3] (immunostaining), the “CD31-positively and αSMA-positively stained old microvessel numbers compared to saline group” value is recorded as “but not vitamin E, significantly inhibited”. Besides, the “vessel volume and density in the lesions compared to saline group” value in assay [3] (microCT, Microfil) is “but not vitamin E, significantly inhibited”. Moreover, in assay [4], the “total apoptotic cell numbers in the lesions compared to saline group” value is given as “but not vitamin E significantly increased”. Also, the “ORAC in endometriotic lesions compared to saline group” value in assay [5] (lesions after intervention) is listed as “significantly increased”. Moreover, the “ORAC in plasma compared to saline group” value in assay [5] (plasma during intervention) was “significantly increased”. Also, in assay [6] (lesions after intervention), the “VEGF concentrations in endometriotic lesions compared to saline group” value is given as “not significantly different from the saline group”. Also, the “VEGF concentrations in plasma compared to saline group” value in assay [6] (plasma during intervention) is on record as “not significantly different from the saline group”.
